Organism: Rattus norvegicus
Test: DrugMatrix - Regimen: Daily Repeat
Format: toxicity, organism-based, Sprague-Dawley
Set-up: regimen Daily Repeat, gender Male, age 6-8 weeks
Settings: in vivo, po, route oral GAVAGE, vehicle 100 % WATER; for ABSOLUTE BASOPHIL / ABSOLUTE EOSINOPHIL / ABSOLUTE LYMPHOCYTE / ABSOLUTE MONOCYTE / ABSOLUTE SEGMENTED NEUTROPHIL / BASOPHIL / EOSINOPHIL / ERYTHROCYTE COUNT / HEMATOCRIT / HEMOGLOBIN / LEUKOCYTE COUNT / LYMPHOCYTE / MEAN CORPUSCULAR HEMOGLOBIN / MEAN CORPUSCULAR HEMOGLOBIN CONCENTRATION / MEAN CORPUSCULAR VOLUME / MONOCYTE / NEUTROPHIL / NUCLEATED RED BLOOD CELLS / PLATELET COUNT: tissue Blood; for ALANINE AMINOTRANSFERASE / ALBUMIN / ALKALINE PHOSPHATASE / ASPARTATE AMINOTRANSFERASE / BLOOD UREA NITROGEN / CARBON DIOXIDE / CHLORIDE / CHOLESTEROL / CREATINE PHOSPHOKINASE / CREATININE / GLUCOSE / LACTATE DEHYDROGENASE / LIPASE / PHOSPHORUS / POTASSIUM / SODIUM / TOTAL BILIRUBIN / TOTAL PROTEIN / URIC ACID: tissue Plasma
[1] = 0 mg/kg, 72 h, dose level Control, time 3 day
[2] = 0 mg/kg, 120 h, dose level Control, time 5 day
[3] = 50 mg/kg, 72 h, dose level Low, time 3 day
[4] = 50 mg/kg, 120 h, dose level Low, time 5 day

## CC[C@H]1OC(=O)[C@H](C)[C@@H](O[C@H]2C[C@@](C)(OC)[C@@H](O)[C@H](C)O2)[C@H](C)[C@@H](O[C@@H]2O[C@H](C)C[C@H](N(C)C)[C@H]2O)[C@](C)(O)C[C@@H](C)CN(C)[C@H](C)[C@@H](O)[C@]1(C)O [AZITHROMYCIN]
[1]
  ABSOLUTE BASOPHIL: 0 CELLS/uL
  ABSOLUTE EOSINOPHIL: 33.67 CELLS/uL
  ABSOLUTE LYMPHOCYTE: 11257.17 CELLS/uL
  ABSOLUTE MONOCYTE: 72.17 CELLS/uL
  ABSOLUTE SEGMENTED NEUTROPHIL: 1220.33 CELLS/uL
  BASOPHIL: 0%
  EOSINOPHIL: 0.33%
  ERYTHROCYTE COUNT: 5 x10E6/uL
  HEMATOCRIT: 32.62%
  HEMOGLOBIN: 12.83 G/DL
  LEUKOCYTE COUNT: 12.58 x10E3/uL
  LYMPHOCYTE: 89%
  MEAN CORPUSCULAR HEMOGLOBIN: 25.67 pg
  MEAN CORPUSCULAR HEMOGLOBIN CONCENTRATION: 39.35 G/DL
  MEAN CORPUSCULAR VOLUME: 65.23 fL
  MONOCYTE: 0.67%
  NEUTROPHIL: 10%
  NUCLEATED RED BLOOD CELLS: 0 /100WBC
  PLATELET COUNT: 1162.5 x10E3/uL
  ALANINE AMINOTRANSFERASE: 45.33 u/L
  ALBUMIN: 3.95 G/DL
  ALKALINE PHOSPHATASE: 356.17 u/L
  ASPARTATE AMINOTRANSFERASE: 81 u/L
  BLOOD UREA NITROGEN: 11 mg/dL
  CARBON DIOXIDE: 29.83 mmol/L
  CHLORIDE: 97.8 MEQ/L
  CHOLESTEROL: 65.17 mg/dL
  CREATINE PHOSPHOKINASE: 211.33 u/L
  CREATININE: 0.11 mg/dL
  GLUCOSE: 164.67 mg/dL
  LACTATE DEHYDROGENASE: 143.17 u/L
  LIPASE: 10.17 u/L
  PHOSPHORUS: 10.88 mg/dL
  POTASSIUM: 6.08 MEQ/L
  SODIUM: 141.54 MEQ/L
  TOTAL BILIRUBIN: 0.23 mg/dL
  TOTAL PROTEIN: 5.65 G/DL
  URIC ACID: 1 mg/dL
[2]
  ABSOLUTE BASOPHIL: 0 CELLS/uL
  ABSOLUTE EOSINOPHIL: 48.67 CELLS/uL
  ABSOLUTE LYMPHOCYTE: 9267.83 CELLS/uL
  ABSOLUTE MONOCYTE: 194.33 CELLS/uL
  ABSOLUTE SEGMENTED NEUTROPHIL: 572.5 CELLS/uL
  BASOPHIL: 0%
  EOSINOPHIL: 0.33%
  ERYTHROCYTE COUNT: 5.41 x10E6/uL
  HEMATOCRIT: 36.17%
  HEMOGLOBIN: 13.9 G/DL
  LEUKOCYTE COUNT: 10.08 x10E3/uL
  LYMPHOCYTE: 92.17%
  MEAN CORPUSCULAR HEMOGLOBIN: 25.73 pg
  MEAN CORPUSCULAR HEMOGLOBIN CONCENTRATION: 38.45 G/DL
  MEAN CORPUSCULAR VOLUME: 66.97 fL
  MONOCYTE: 1.83%
  NEUTROPHIL: 5.67%
  NUCLEATED RED BLOOD CELLS: 0.33 /100WBC
  PLATELET COUNT: 1122.33 x10E3/uL
  ALANINE AMINOTRANSFERASE: 52.83 u/L
  ALBUMIN: 4.12 G/DL
  ALKALINE PHOSPHATASE: 367.33 u/L
  ASPARTATE AMINOTRANSFERASE: 88 u/L
  BLOOD UREA NITROGEN: 12.67 mg/dL
  CARBON DIOXIDE: 33.67 mmol/L
  CHLORIDE: 97 MEQ/L
  CHOLESTEROL: 67.5 mg/dL
  CREATINE PHOSPHOKINASE: 358.67 u/L
  CREATININE: 0.14 mg/dL
  GLUCOSE: 152.33 mg/dL
  LACTATE DEHYDROGENASE: 180 u/L
  LIPASE: 10.5 u/L
  PHOSPHORUS: 10.63 mg/dL
  POTASSIUM: 5.99 MEQ/L
  SODIUM: 141.85 MEQ/L
  TOTAL BILIRUBIN: 0.2 mg/dL
  TOTAL PROTEIN: 6.18 G/DL
  URIC ACID: 0.52 mg/dL
[3]
  ABSOLUTE BASOPHIL: 0 CELLS/uL
  ABSOLUTE EOSINOPHIL: 0 CELLS/uL
  ABSOLUTE LYMPHOCYTE: 14976.33 CELLS/uL
  ABSOLUTE MONOCYTE: 50 CELLS/uL
  ABSOLUTE SEGMENTED NEUTROPHIL: 1373.67 CELLS/uL
  BASOPHIL: 0%
  EOSINOPHIL: 0%
  ERYTHROCYTE COUNT: 5.24 x10E6/uL
  HEMATOCRIT: 34.53%
  HEMOGLOBIN: 13.33 G/DL
  LEUKOCYTE COUNT: 16.4 x10E3/uL
  LYMPHOCYTE: 91.33%
  MEAN CORPUSCULAR HEMOGLOBIN: 25.5 pg
  MEAN CORPUSCULAR HEMOGLOBIN CONCENTRATION: 38.67 G/DL
  MEAN CORPUSCULAR VOLUME: 65.87 fL
  MONOCYTE: 0.33%
  NEUTROPHIL: 8.33%
  NUCLEATED RED BLOOD CELLS: 0.33 /100WBC
  PLATELET COUNT: 1013.33 x10E3/uL
  ALANINE AMINOTRANSFERASE: 52.67 u/L
  ALBUMIN: 3.97 G/DL
  ALKALINE PHOSPHATASE: 324 u/L
  ASPARTATE AMINOTRANSFERASE: 77 u/L
  BLOOD UREA NITROGEN: 13 mg/dL
  CARBON DIOXIDE: 30 mmol/L
  CHLORIDE: 98.33 MEQ/L
  CHOLESTEROL: 80.67 mg/dL
  CREATINE PHOSPHOKINASE: 196 u/L
  CREATININE: 0.11 mg/dL
  GLUCOSE: 165 mg/dL
  LACTATE DEHYDROGENASE: 154 u/L
  LIPASE: 9.33 u/L
  PHOSPHORUS: 11.37 mg/dL
  POTASSIUM: 6.42 MEQ/L
  SODIUM: 143.1 MEQ/L
  TOTAL BILIRUBIN: 0.2 mg/dL
  TOTAL PROTEIN: 5.87 G/DL
  URIC ACID: 0.83 mg/dL
[4]
  ABSOLUTE BASOPHIL: 0 CELLS/uL
  ABSOLUTE EOSINOPHIL: 59.33 CELLS/uL
  ABSOLUTE LYMPHOCYTE: 8956 CELLS/uL
  ABSOLUTE MONOCYTE: 157 CELLS/uL
  ABSOLUTE SEGMENTED NEUTROPHIL: 561 CELLS/uL
  BASOPHIL: 0%
  EOSINOPHIL: 0.67%
  ERYTHROCYTE COUNT: 5.03 x10E6/uL
  HEMATOCRIT: 33.47%
  HEMOGLOBIN: 12.9 G/DL
  LEUKOCYTE COUNT: 9.73 x10E3/uL
  LYMPHOCYTE: 91.67%
  MEAN CORPUSCULAR HEMOGLOBIN: 25.73 pg
  MEAN CORPUSCULAR HEMOGLOBIN CONCENTRATION: 38.57 G/DL
  MEAN CORPUSCULAR VOLUME: 66.63 fL
  MONOCYTE: 1.67%
  NEUTROPHIL: 6%
  NUCLEATED RED BLOOD CELLS: 0 /100WBC
  PLATELET COUNT: 1159 x10E3/uL
  ALANINE AMINOTRANSFERASE: 55.33 u/L
  ALBUMIN: 3.87 G/DL
  ALKALINE PHOSPHATASE: 346 u/L
  ASPARTATE AMINOTRANSFERASE: 85.33 u/L
  BLOOD UREA NITROGEN: 13.33 mg/dL
  CARBON DIOXIDE: 33.67 mmol/L
  CHLORIDE: 98.33 MEQ/L
  CHOLESTEROL: 66.33 mg/dL
  CREATINE PHOSPHOKINASE: 375.33 u/L
  CREATININE: 0.18 mg/dL
  GLUCOSE: 143.67 mg/dL
  LACTATE DEHYDROGENASE: 176.67 u/L
  LIPASE: 12.33 u/L
  PHOSPHORUS: 11.3 mg/dL
  POTASSIUM: 5.91 MEQ/L
  SODIUM: 142.67 MEQ/L
  TOTAL BILIRUBIN: 0.13 mg/dL
  TOTAL PROTEIN: 5.9 G/DL
  URIC ACID: 0.37 mg/dL

Source: ChEMBL document CHEMBL3885881, “DrugMatrix”
